# Assay results taken from PubChem BioAssay (NCI).
#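 Each compound was tested at five concentrations against cells in 96-well plates for 48 hours. GI50: concentration for 50% inhibition of growth. Definition used: TGI = concentration required for complete inhibition of growth.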
# Columns and labels:
# Assay in all cases: NCI tumour cell line growth inhibition, 48 h
# [1] = test system: 786-0 renal
# [2] = test system: HT29 colon
# [3] = test system: LOX IMVI melanoma
# [4] = test system: OVCAR-4 ovarian
# [5] = test system: SF-295 CNS
# [6] = test system: SK-MEL-5 melanoma
# [7] = test system: SNB-75 CNS
# [8] = test system: U251 CNS
# [9] = test system: EKVX NSCLC
# [10] = test system: HCC-2998 colon
Structure (SMILES),TGI [1] [µM],TGI [2] [µM],TGI [3] [µM],TGI [4] [µM],TGI [5] [µM],TGI [6] [µM],TGI [7] [µM],TGI [8] [µM],TGI [9] [µM],TGI [10] [µM],GI50 [1] [µM],GI50 [9] [µM],GI50 [10] [µM],GI50 [2] [µM],GI50 [4] [µM],GI50 [5] [µM],GI50 [6] [µM],GI50 [7] [µM],GI50 [8] [µM],GI50 [3] [µM]
O=C(Nc1c(O)[nH]c(=S)[nH]c1=O)c1ccc2ccccc2n1,> 100,> 100,> 100,> 100,> 100,> 100,> 100,> 100,,,,,,,,,,,,
CC(C)(C)C(=O)C1CC(=O)c2ccccc2C1=O (stereo not given),> 100,,> 100,> 100,> 100,72.8,31.3,99.7,> 100,> 100,,,,,,,,,,
COC1=CC(c2ccc[nH]2)=N/C1=C\c1ccc[nH]1,0.712,3.93,,13.3,3.17,0.261,1.83,12.4,16.4,9.54,0.192,0.61,0.361,< 0.013,0.316,0.58,0.064,0.188,0.379,
COc1cc(-c2cc(-c3nc4ccc(Cl)cc4[nH]3)[nH]n2)cc(OC)c1OC,18.3,16.4,,4.37,11.2,3.48,10.4,14.1,,18.7,5.32,,5.98,4.14,1.38,2.35,1.62,2.71,3.38,
C=C(C)[C@@H]1CC[C@]2(C)[C@H](CC[C@@H]3[C@H]4[C@H]5OC[C@@]4(CCC5(C)C)CC[C@]32C)[C@@]1(C)CCCN,3.17,,0.489,3.78,3.22,3.55,3.11,3.15,3.31,2.91,1.67,1.81,1.49,,2.04,1.78,1.91,1.53,1.67,0.0275
Nc1ccn(C2CC(CO)C(O)C2O)c(=O)n1 (stereo not given),> 57.7,,,> 57.7,,> 57.7,> 57.7,> 57.7,> 57.7,> 57.7,,,,,,,,,,
COC(=O)[C@]1(C)CCC[C@@]2(C)C1CCC1=CC3(C(C)C)CCC12OO3 (stereo not given in full),> 100,> 100,> 100,> 100,> 100,> 100,,> 100,> 100,> 100,,,,,,,,,,
CC1C=CC(=O)C(n2cc(F)c(=O)[nH]c2=O)O1 (stereo not given),31.3,32.5,33.6,34.3,,35.8,38.2,29.5,50.9,,,,,,,,,,,
OCC12C3C4C1C1C2C3C41CO (stereo not given),> 100,> 100,> 100,> 100,> 100,> 100,,> 100,> 100,> 100,,,,,,,,,,
COc1ccc(/C(C)=N/OC(=O)c2c(-c3ccccc3Cl)noc2C)cc1CN1CCOCC1,59.2,36.9,28.1,> 100,32.8,31.8,94,97.7,,93.8,,,,,,,,,,
Nc1ccc(/C=N/Nc2ccnc3c(N)cccc23)c2cccnc12,3.04,3.47,,3.35,3,3.19,3.35,3.09,3.34,3.3,1.59,1.63,1.81,1.92,1.54,1.57,1.78,1.74,1.61,
Cn1cc(C2=C(c3cn(CCN)c4ccccc34)C(=O)NC2=O)c2ccccc21,> 25,15.7,> 22.8,> 21.2,16.7,13,6.72,> 20.5,,20.9,8.98,,7.22,4.2,5.66,5.54,4.59,0.587,5.61,6.05
NCCC(O)(P(=O)(O)O)P(=O)(O)O,> 100,> 100,> 100,> 100,,> 100,> 100,> 100,> 100,> 100,> 100,> 100,> 100,> 100,> 100,,> 100,> 100,> 100,> 100
CC(=O)N=c1ccc2nc3c(cc(N)c4ccccc43)oc-2c1,2.93,4.62,,1.64,,1.35,3.34,2.86,4.54,1.87,1.46,1.52,0.503,2.09,0.409,,0.33,1.83,1.43,
Nc1nc2nc[nH]c2c(=O)[nH]1,> 100,> 100,> 100,> 100,> 100,> 100,> 100,> 100,> 100,,,,,,,,,,,
CCCc1nc2c(C)cc(-c3nc4ccccc4n3C)cc2n1Cc1ccc(-c2ccccc2C(=O)O)cc1,> 100,> 100,> 100,> 100,> 100,> 100,> 100,51.8,,> 100,41.4,,51.9,35.8,50.6,34.4,25.8,56,20.2,23.2
O=C1OC(O)C(Oc2ccc(Cl)cc2)=C1Cl (stereo not given),> 100,> 100,> 100,> 100,> 100,,> 100,> 100,> 100,> 100,,,,,,,,,,
Cc1cc(O)cc2c1O[C@@]1(C)CCC3[C@@]4(C)CC[C@H](O)C(C)(C)C4CC[C@@]3(C)[C@H]1C2 (stereo not given in full),4.72,28.2,20.6,,6.16,19,11.8,11.5,31.4,,,,,,,,,,,
